The text below walks through data of patent EP1733758A1, “Methods for administration of a farnesyl dibenzodiazepinone” (Ecopia Biosciences Inc., priority 2005, dated 2006).

Data set [1] relates to human glioma (U-87MG) tumor xenograft. The data set can be described thus: Human U-87MG glioblastoma xenograft antitumor efficacy study. Format: in vivo, female athymic (nu/nu) nude mice. The conditions noted are these: SC bolus 30 mg/kg q1d x 5 over 2 weeks. The source says: (§1) In this model and the models of Examples 3, 6 and 7, tumor growth was followed every other day by measuring tumor length (L) and width (W) using a calliper. Measurements were converted to tumor volumes (TV; mm^3) using the standard formula, TV = (L xW^2)/2. Tumor volume at day n was expressed as relative tumor volume (RTV) according to the following formula RTV = TVn / TV0, where TVn is the tumor volume at day n and TV0 is the tumor volume at day 0. The percentage of tumor growth inhibition (%TGI) was determined by 1 ― (mean RTV of treated group/ mean RTV of control group) x 100. […] Statistical analysis was calculated by the two-tailed unpaired t test using the Prism software. Animals were weighed at least twice weekly during and after treatment until completion of the study. The mice were examined frequently for overt signs of any adverse drug-related side effects.
The human U-87 MG (ATCC® no. HTB-14™) glioblastoma antitumor efficacy study was performed at INSERM U318 (Grenoble, France). […]
For the human glioblastoma antitumor efficacy study, female athymic (nu/nu) nude mice (6-7 weeks of age) were inoculated SC with 5 x 10^6 U-87MG cells (day 0). […] Tumor growth inhibition (TGI) was calculated on day 34 post tumor cell inoculation, at which time some animals from the vehicle control group had to be sacrificed due to tumor burden.
A general note: A xenograft is tissue or cells of one species grown in another, often human tumour cells in immunodeficient mice.

A further data set concerns tumor cell lines. The data set can be described thus: In vitro activity against tumor cell lines (average). The data set is classed as cell-based.
Data set [2] deals with rat glioma (C6) tumor xenograft. The data set can be described thus: Rat C6 glioblastoma subcutaneous tumor xenograft antitumor efficacy study. Format: in vivo, female athymic (nu/nu) nude mice. The conditions noted are these: for %TGI: analyzed at Day 18, P < 0.0001. Here is the method: The rat C6 glioblastoma antitumor efficacy study was performed at INSERM U318 (Grenoble, France). The rat C6 glioblastoma subcutaneous tumor model is based on the use of a rat C6 cell line obtained from a rat glial tumor induced by N-nitrosomethylurea (Benda et al. (1968), Science, vol 161, 370-371). These animal studies were done according to ethical guidelines of animal experimentation (Charte du comité d'éthique du CNRS, 2003) and the English "Guidelines for the welfare of animals in experimental neoplasia (Second Edition)" from the United Kingdom Coordinating Committee on Cancer Research (UKCCCR) (Workman et al. (1998), Br. J. Cancer, vol 77, no 1, 1-10). On each dosing day, Formula I stock solutions (24 and 40 mg/mL in 20% ethanol, 20% PEG-400 and 60% Tween 80) were diluted with sterile 5% dextrose in water (D5W) to prepare dosing solutions of 6 mg/mL and 10 mg/mL of Formula I in a vehicle consisting of 5% ethanol, 5% PEG-400, 15% Tween-80, and 75% D5W.
For the rat glioma antitumor efficacy study, female athymic (nu/nu) nude mice (6-7 weeks of age) were inoculated SC with 5 x 10^6 C6 cells (day 0). Tumor bearing animals were randomized (10 per group) when tumors were palpable (day 6). Group 1 (control group) received drug-free vehicle (5% ethanol, 5% PEG-400, 15% Tween-80, and 75% D5W) IP (5 mL/kg), once daily on days 6-18 (q1d x 13). Group 2 received Formula I (6 mg/mL) IP at 20 mg/kg, once daily on days 6 to 13 and then at 10 mg/kg once daily on days 14 to 18. Group 3 received Formula I (6 mg/mL) SC at 30 mg/kg, once daily on days 6 to 13 and then at 15 mg/kg once daily on days 14 to 18. Group 4 received Formula I (10 mg/mL) IV at 100 mg/kg q1d x 5 for 2 weeks. Each animal was euthanized when its tumor reached the predetermined endpoint size (∼2,500 mm^3) or at the end of the study (D18). Treatment period was over 13 days, from day 6 to day 18, post tumor cell inoculation. Tumor growth inhibition (TGI) was calculated on day 16 post tumor cell inoculation, at which time some animals from the vehicle control group had to be sacrificed due to tumor burden.
as §1
When the time to endpoint (TTE) for each mouse was also calculated by the following equation: TTE = (log10(endpoint volume)−b)/(m) [formula] Where TTE is expressed in days, endpoint volume is in mm^3, b is the intercept, and m is the slope of the line obtained by linear regression of a log-transformed tumor data set. This value was used to determined % tumor growth delay (%TGD), defined as the increase in median TTE for a treatment group compared to the control group expressed in days, or as a percentage of the median TTE of the control group.

Structures are written as SMILES. pIC50: −log10 of the molar value. Where only a bound is given, the exact number is not on record here.

Consider `CC(C)=CCC/C(C)=C/CC/C(C)=C/CN1C(=O)c2cccc(O)c2Nc2c(O)cc(O)cc21` [Formula I, 10-farnesyl-4,6,8-trihydroxy-dibenzodiazepin-11-one], for which the body weight loss result in data set [1] is “no significant body weight loss”; in data set [2] (IV group, 100 mg/kg q1d x 5 for 2 weeks), “No significant body weight loss”. Also, the “%TGI” value in data set [1] (day 34, P = 0.05) came to 36%; in data set [2] (daily bolus IP 20 then 10 mg/kg), 66%; in data set [2] (daily bolus SC 30 then 15 mg/kg), 60%. Besides, the pIC50 (commonly −log10 of the IC50, conventionally taken in molar units) in the data set on tumor cell lines was ≤ 6.00. Further, the “Maximum body weight loss” value in data set [2] (IP 20 mg/kg (Q1D x 8) followed by 10 mg/kg (Q1D x 7), Day 13) was 15%; in data set [2] (SC 30 mg/kg (Q1D x 8) followed by 15 mg/kg (Q1D x 7)), 11%. Moreover, the “difference in tumor volume relative to the vehicle control” value in data set [2] (IV bolus 100 mg/kg (Q1D x 5) over 2 weeks) was “No significant difference”.
